Test results taken from ChEMBL document CHEMBL3137667, “[Drug-induced liver injury; fourteenth updated edition of the bibliographic database of liver injuries and related drugs]” (Gastroenterol Clin Biol, 2004).

What was measured:
[1] = human, serum
[2] = human
[3] = Presence of at least one case with successful reintroduction. [column 'REINT' in source]; details: human
[4] = human; remark: listed apart in the source
[5] = human; remark: listed apart in the source
[6] = human; remark: listed apart in the source
[7] = Highest frequency of acute liver toxicity observed during clinical trials, expressed as a percentage. [column '% AIGUE' in source]; details: human
[8] = human; remark: listed apart in the source
[9] = human; remark: listed apart in the source
[10] = human, serum; remark: listed apart in the source
[11] = human; remark: listed apart in the source
[12] = Highest frequency of moderate liver toxicity observed during clinical trials, expressed as a percentage. [column '% BIOL' in source]; details: human
[13] = human, serum, 4383 h
[14] = human; remark: listed apart in the source
[15] = human; remark: listed apart in the source
[16] = Times to onset, minimal and maximal, observed in the indexed observations. [column 'DELAI' in source]; details: human
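Throughout, for Hepatotoxicity (association with vascular disease): count of indexed literature references reporting vascular liver injury in humans, e.g. peliosis hepatitis, hepatic veno-occlusive disease or Budd-Chiari syndrome.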
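Throughout, for Hepatotoxicity (benign tumour): value is a count of indexed literature references citing a benign tumour confirmed by histopathology.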
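Throughout, for Hepatotoxicity (choleostasis): human cholestatic liver injury, shown by histopathology or by peak ALT or AST elevation over alkaline phosphatase ratio below 2, value counts indexed literature reports.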
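Throughout, for Hepatotoxicity (chronic liver disease): chronic liver injury confirmed by histopathology or persistently raised serum aminotransferase activity beyond 6 months, value given as the count of indexed literature references.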
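Throughout, for Hepatotoxicity (cirrhosis): value is a count of indexed literature references reporting cirrhosis confirmed by histopathology.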
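Throughout, for Hepatotoxicity (cytolytic): human cytolytic liver injury, shown by histopathology or by a ratio above 5 of peak ALT or AST elevation to alkaline phosphatase elevation, value counts indexed references.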
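Throughout, for Hepatotoxicity (granulomatous hepatitis): value is a count of indexed literature references reporting granulomatous liver disease confirmed by histopathology.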
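Throughout, for Hepatotoxicity (malignant tumour): malignant tumour confirmed by histopathology, value gives the count of indexed literature references reporting it.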
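Throughout, for Hepatotoxicity (severe hepatitis): human clinical data: severe hepatitis, meaning potentially life-threatening liver failure or clinically observed cases, the value counts how many indexed literature references report it.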
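Throughout, for Hepatotoxicity (steatosis): steatosis confirmed by histopathology, value is the count of indexed references.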

Compound	Hepatotoxicity (moderate) [1]	Hepatotoxicity (steatosis) [2]	Hepatotoxicity (successful reintroduction) [3]	Hepatotoxicity (granulomatous hepatitis) [4]	Hepatotoxicity (malignant tumour) [5]	Hepatotoxicity (severe hepatitis) [6]	Hepatotoxicity (acute) [7]	Hepatotoxicity (cirrhosis) [8]	Hepatotoxicity (choleostasis) [9]	Hepatotoxicity (acute) [10]	Hepatotoxicity (benign tumour) [11]	Hepatotoxicity (moderate) [12]	Hepatotoxicity (chronic liver disease) [13]	Hepatotoxicity (association with vascular disease) [14]	Hepatotoxicity (cytolytic) [15]	Hepatotoxicity (time to onset) [16]	further results
CC[C@H](C)[C@H]1NC(=O)[C@@H](NC(=O)[C@@H](CC(C)C)N(C)C(=O)[C@@H]2CCCN2C(=O)C(C)O)[C@@H](C)OC(=O)[C@H](Cc2ccc(OC)cc2)N(C)C(=O)[C@@H]2CCCN2C(=O)[C@H](CC(C)C)NC(=O)[C@@H](C)C(=O)[C@H](C(C)C)OC(=O)C[C@@H]1O (some centres undefined) [DIDEMNIN B]	3	0	yes	0	0	0	5.3%	0	1	2	0	32%	0	0	0	1 week	
CN(C)C/C=C(/c1ccc(Br)cc1)c1cccnc1 [ZIMELDINE]	9	0	yes	2	0	0	6.6%	0	3	4	0	20.5%	0	0	3	2 weeks - 2 months	
PEGVISOMANT	0	0	yes	0	0	0	1.3%	0	0	2	0	0%	0	0	2	4 weeks - 8 weeks	
INSULIN HUMAN	5	0	yes	0	0	0	0%	0	0	1	0	0%	0	0	1	6 days - 1 month	
CN(C)CCCn1c2c(c3ccccc31)CCCCCC2 [IPRINDOLE]	1	0	yes		0			0		6	0		0	0		2 weeks - 1 month	Hepatotoxicity (granulomatous hepatitis) ([4]; Liver): 0; Hepatotoxicity (severe hepatitis) ([6]; Liver): 0; Hepatotoxicity (acute) ([7]; Liver): 0%; Hepatotoxicity (choleostasis) ([9]; Liver): 6; Hepatotoxicity (moderate) ([12]; Liver): 0%; Hepatotoxicity (cytolytic) ([15]; Liver): 1
CCN(CC)CCCN(c1ccccc1)C1Cc2ccccc2C1 [APRINDINE]	1	0	yes	1	0	0	0.1%	0	7	9	0	1%	0	0	4	5 days - 2 months	
COc1cc(C(=O)NS(=O)(=O)c2ccccc2C)ccc1Cc1cn(C)c2ccc(NC(=O)OC3CCCC3)cc12 [ZAFIRLUKAST]	4	0	yes	0	0	3	0.5%	0	0	8	0	4.1%	0	0	8	2 months - 1 year	
CN(CCCN1c2ccccc2CCc2ccccc21)CC(=O)c1ccc(Cl)cc1 [LOFEPRAMINE]	7	0	yes	0	0	1	2.3%	0	3	3	0	46.5%	0	0	2	1 week - 12 weeks	
CC(NCCc1ccc(O)cc1)C(O)c1ccc(O)cc1 (centres undefined) [RITODRINE]	6	0	yes	0	0	0	0.9%	0	1	6	0	40%	0	0	6	4 days - 9 weeks	
CCCN(CCC)S(=O)(=O)c1ccc(C(=O)O)cc1 [PROBENECID]	0	0	yes	1	0	1	0%	0	0	1	0	0%	0	0	1	2 years	
CC(C(=O)O)c1ccc(-c2ccccc2)c(F)c1 (centres undefined) [FLURBIPROFEN]	4	0	yes	0	0	0	0%	0	1	3	0	8.1%	0	0	2	1 day - 2 months	
C/C=C(/CC)C(=O)NC(N)=O	0	0	yes	0	0	0	0%	0	0	1	0	0%	0	0	0	3 weeks	
FILGRASTIM	7	0	yes	0	0	0	0%	0	1	2	0	75%	0	0	2	3 days - 8 days	
CCC1(c2ccccc2)C(=O)NC(=O)N(C)C1=O (centres undefined) [MEPHOBARBITAL]	0	0	yes	0	0	0	0%	0	0	1	0	0%	0	0	1	3 months	
